From patent US11078496B2, “System for F-box hormone receptor regulated protein expression in mammalian cells” (ICAHN SCHOOL OF MEDICINE AT MOUNT SINAI, priority 2016, dated 2021)

Test system: human ESCs
Assay: Proliferation of H9 ESCs under coronatine (growth curves)
Format: cell-based
Conditions: H9 cells expressing pJAZ NLS-GFP-OsJAZ^33, 50 μM coronatine vs 0.1% DMSO, counted daily
From the text: FIG. 10A is a sequence alignment of O. sativa coronatine-degradable proteins (Tan et al., “Mechanism of Auxin Perception by the TIR1 Ubiquitin Ligase,” Nature 446:640-645 (2007), which is hereby incorporated by reference in its entirety) OsJAZ1 (NP_001064513.1; SEQ ID NO: 4), OsJAZ2 (NP_001049167.1; SEQ ID NO: 5), OsJAZ7 (NP_001063273.1; SEQ ID NO: 6), OsJAZ3 (NP_001049166.1; SEQ ID NO: 7), and A. thaliana AtJAZ1 (NP_564075; SEQ ID NO: 8). Degron sequences used in this study are highlighted and degron names indicated on the right. […] GFP level was analyzed by flow cytometry and % degradation was calculated as described in the Methods. […] FIG. 10F show GFP fluorescence histograms derived from flow cytometric analysis of HEK-293T cells infected with the indicated pJAZ versions, selected and treated with either 0.1% DMSO (“Con”) or 50 μM coronatine (“Cor”). Parental HEK-293T cells were analyzed as a control for background autofluorescence. […] FIG. 10H show the relative median fluorescence of HEK-293T cells infected with pJAZ 7 harboring either GFP-OsJAZ^33 or NLS-GFP-OsJAZ^33. Cells were selected and treated with increasing concentrations of coronatine (“Cor”) and analyzed after 24 hours (left panel), or with 50 μM coronatine for the indicated time periods (right panel). GFP fluorescence was analyzed by flow cytometry. […] Cells were counted daily and growth curves are plotted in FIG. 10K. […]

CC[C@H]1C=C(C(=O)N[C@@]2(C(=O)O)C[C@@H]2CC)[C@H]2CCC(=O)[C@H]2C1 [coronatine, Coronatine]
effect on proliferation: does not affect proliferation
